Data: paper PMC9848300, “Discovery of novel enasidenib analogues targeting inhibition of mutant isocitrate dehydrogenase 2 as antileukaemic agents” (Journal of Enzyme Inhibition and Medicinal Chemistry, 2023)

Tests used:
Test in all cases: NCI 60 antitumor screening (single dose / five doses)
HL-60(TB) = type: cell-based; conditions: Homo sapiens; HL-60(TB) (leukaemia), single dose 10 μM; read-out: Growth inhibition percentage (GI %)
IGROV1 = type: cell-based; conditions: Homo sapiens, IGROV-1; IGROV1 (ovarian cancer), single dose 10 μM; read-out: Growth inhibition percentage (GI %)
MDA-MB-468 = type: cell-based; conditions: Homo sapiens; MDA-MB-468 (breast cancer), single dose 10 μM; read-out: Growth inhibition percentage (GI %)
HCT-116 = type: cell-based; conditions: Homo sapiens; HCT-116 (colon cancer), single dose 10 μM; read-out: Growth inhibition percentage (GI %)
HT29 = type: cell-based, human; conditions: Homo sapiens, HT-29; HT29 (colon cancer), single dose 10 μM; read-out: Growth inhibition percentage (GI %)
SK-MEL-28 = type: cell-based; conditions: Homo sapiens; SK-MEL-28 (melanoma), single dose 10 μM; read-out: Growth inhibition percentage (GI %)
SN 12C = type: cell-based; conditions: Homo sapiens, SN12C; SN 12C (renal cancer), single dose 10 μM; read-out: Growth inhibition percentage (GI %)
SF-295 = type: cell-based; conditions: Homo sapiens; SF-295 (CNS cancer), single dose 10 μM; read-out: Growth inhibition percentage (GI %)
NCI/ADR-RES = type: cell-based; conditions: Homo sapiens; NCI/ADR-RES (ovarian cancer), single dose 10 μM; read-out: Growth inhibition percentage (GI %)
COLO 205 = type: cell-based; conditions: Homo sapiens; COLO 205 (colon cancer), single dose 10 μM; read-out: Growth inhibition percentage (GI %)
UACC-62 = type: cell-based; conditions: Homo sapiens; UACC-62 (melanoma), single dose 10 μM; read-out: Growth inhibition percentage (GI %)
K-562 = type: cell-based; conditions: Homo sapiens, K562; K-562 (leukaemia), single dose 10 μM; read-out: Growth inhibition percentage (GI %)
SF-539 = type: cell-based; conditions: Homo sapiens; SF-539 (CNS cancer), single dose 10 μM; read-out: Growth inhibition percentage (GI %)
T-47D = type: cell-based; conditions: Homo sapiens, T47D; T-47D (breast cancer), single dose 10 μM; read-out: Growth inhibition percentage (GI %)
A498 = type: cell-based; conditions: Homo sapiens; A498 (renal cancer), single dose 10 μM; read-out: Growth inhibition percentage (GI %)
EKVX = type: cell-based; conditions: Homo sapiens; EKVX (non-small cell lung cancer), single dose 10 μM; read-out: Growth inhibition percentage (GI %)
UO-31 = type: cell-based; conditions: Homo sapiens; UO-31 (renal cancer), single dose 10 μM; read-out: Growth inhibition percentage (GI %)
MOLT-4 = type: cell-based; conditions: Homo sapiens; MOLT-4 (leukaemia), single dose 10 μM; read-out: Growth inhibition percentage (GI %)
LOX IMVI = type: cell-based; conditions: Homo sapiens; LOX IMVI (melanoma), single dose 10 μM; read-out: Growth inhibition percentage (GI %)
SK-MEL-5 = type: cell-based; conditions: Homo sapiens; SK-MEL-5 (melanoma), single dose 10 μM; read-out: Growth inhibition percentage (GI %)
HCT-15 = type: cell-based; conditions: Homo sapiens; HCT-15 (colon cancer), single dose 10 μM; read-out: Growth inhibition percentage (GI %)
SW-620 = type: cell-based, human; conditions: Homo sapiens; SW-620 (colon cancer), single dose 10 μM; read-out: Growth inhibition percentage (GI %)
SK-MEL-2 = type: cell-based; conditions: Homo sapiens; SK-MEL-2 (melanoma), single dose 10 μM; read-out: Growth inhibition percentage (GI %)
MALME-3M = type: cell-based; conditions: Homo sapiens; MALME-3M (melanoma), single dose 10 μM; read-out: Growth inhibition percentage (GI %)
MDA-MB-231/ATCC = type: cell-based; conditions: Homo sapiens; MDA-MB-231/ATCC (breast cancer), single dose 10 μM; read-out: Growth inhibition percentage (GI %)
CCRF-CEM = type: cell-based; conditions: Homo sapiens; CCRF-CEM (leukaemia), single dose 10 μM; read-out: Growth inhibition percentage (GI %)
ACHN = type: cell-based; conditions: Homo sapiens; ACHN (renal cancer), single dose 10 μM; read-out: Growth inhibition percentage (GI %)
SNB-75 = type: cell-based; conditions: Homo sapiens; SNB-75 (CNS cancer), single dose 10 μM; read-out: Growth inhibition percentage (GI %)

Q: Which results are given for `COC(=O)C(Cc1ccccc1)Nc1nc(NC(Cc2ccccc2)C(=O)OC)nc(N2CCOCC2)n1` (centres unmarked) [compound 8c, Methyl 2-({4-[(1-methoxy-1-oxo-3-phenylpropan-2-yl)amino]-6-(morpholin-4-yl)-1,3,5-triazin-2-yl}amino)-3-phenylpropanoate]?
A: inhibition at 10 µM (HL-60(TB)): -2.51%; inhibition at 10 µM (IGROV1): 1.38%; inhibition at 10 µM (MDA-MB-468): -7.75%; inhibition at 10 µM (HCT-116): 0.81%; inhibition at 10 µM (HT29): -0.61%; inhibition at 10 µM (SK-MEL-28): -8.72%; inhibition at 10 µM (SN 12C): -3.62%; inhibition at 10 µM (SF-295): -7.74%; inhibition at 10 µM (NCI/ADR-RES): -10.6%; inhibition at 10 µM (COLO 205): -4.56%; inhibition at 10 µM (UACC-62): 9.82%; inhibition at 10 µM (K-562): 8.42%; inhibition at 10 µM (SF-539): 1.99%; inhibition at 10 µM (T-47D): -0.53%; inhibition at 10 µM (A498): -7.4%; inhibition at 10 µM (EKVX): -4.54%; inhibition at 10 µM (UO-31): 18.8%; inhibition at 10 µM (MOLT-4): -1.03%; inhibition at 10 µM (LOX IMVI): -5.03%; inhibition at 10 µM (SK-MEL-5): 1.32%; inhibition at 10 µM (HCT-15): -6.16%; inhibition at 10 µM (SW-620): -11.7%; inhibition at 10 µM (SK-MEL-2): -11%; inhibition at 10 µM (MALME-3M): -4.87%; inhibition at 10 µM (MDA-MB-231/ATCC): -2.54%; inhibition at 10 µM (CCRF-CEM): -4.54%; inhibition at 10 µM (ACHN): -8.95%; inhibition at 10 µM (SNB-75): 9.51%

Q: Which results are given for `O=C(NNc1nc(NNC(=O)c2ccccc2)nc(N2CCOCC2)n1)c1ccccc1` [compound 8d, N'-[4-(morpholin-4-yl)-6-(phenylhydrazido)-1,3,5-triazin-2-yl]benzohydrazide]?
A: inhibition at 10 µM (HL-60(TB)): -15.3%; inhibition at 10 µM (IGROV1): -2.38%; inhibition at 10 µM (MDA-MB-468): -15.1%; inhibition at 10 µM (HCT-116): -3.34%; inhibition at 10 µM (HT29): -12%; inhibition at 10 µM (SK-MEL-28): -19.5%; inhibition at 10 µM (SN 12C): -6.53%; inhibition at 10 µM (SF-295): -0.06%; inhibition at 10 µM (NCI/ADR-RES): 1.24%; inhibition at 10 µM (COLO 205): -12.9%; inhibition at 10 µM (UACC-62): 4.98%; inhibition at 10 µM (K-562): -6.16%; inhibition at 10 µM (SF-539): 2.56%; inhibition at 10 µM (T-47D): -10.8%; inhibition at 10 µM (A498): -11%; inhibition at 10 µM (EKVX): 3.9%; inhibition at 10 µM (UO-31): 13.3%; inhibition at 10 µM (MOLT-4): -8.9%; inhibition at 10 µM (LOX IMVI): 2.21%; inhibition at 10 µM (SK-MEL-5): 0.18%; inhibition at 10 µM (HCT-15): -2.67%; inhibition at 10 µM (SW-620): -4.44%; inhibition at 10 µM (SK-MEL-2): -13.4%; inhibition at 10 µM (MALME-3M): -7.11%; inhibition at 10 µM (MDA-MB-231/ATCC): -3.73%; inhibition at 10 µM (CCRF-CEM): -6.05%; inhibition at 10 µM (ACHN): -4.4%; inhibition at 10 µM (SNB-75): 9.11%
